The numbers were not newly measured in patent publication US20050019354A1, “Topical benfotiamine treatments” (priority 2003, published 2005), which cites them from elsewhere.

The target of one series is T1, transketolase (Homo sapiens, UniProt P29401).
T1 sequence (P29401 1-623): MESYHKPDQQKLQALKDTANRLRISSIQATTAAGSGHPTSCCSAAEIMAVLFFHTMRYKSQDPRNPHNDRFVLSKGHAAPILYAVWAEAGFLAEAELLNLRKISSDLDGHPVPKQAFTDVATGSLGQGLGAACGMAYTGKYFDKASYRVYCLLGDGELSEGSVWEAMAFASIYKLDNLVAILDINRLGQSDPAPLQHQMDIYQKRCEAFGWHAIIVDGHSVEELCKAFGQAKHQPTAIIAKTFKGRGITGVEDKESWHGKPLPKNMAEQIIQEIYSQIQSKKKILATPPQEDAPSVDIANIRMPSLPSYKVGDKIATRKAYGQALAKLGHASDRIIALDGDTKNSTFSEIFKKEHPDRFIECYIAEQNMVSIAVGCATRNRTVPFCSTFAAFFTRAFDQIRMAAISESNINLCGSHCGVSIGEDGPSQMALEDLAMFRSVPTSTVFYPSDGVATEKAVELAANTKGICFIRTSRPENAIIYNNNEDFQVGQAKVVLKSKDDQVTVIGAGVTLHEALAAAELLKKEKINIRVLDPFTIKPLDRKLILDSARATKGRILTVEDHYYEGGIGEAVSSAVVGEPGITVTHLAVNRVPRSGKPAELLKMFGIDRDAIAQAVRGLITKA

Series [1] relates to retinopathy in diabetic rats.

With `C/C(=C(\CCOP(=O)(O)O)SC(=O)c1ccccc1)N(C=O)Cc1cnc(C)nc1N` [Benfotiamine, S-Benzoylthiamine-O-Monophosphate], on transketolase, the “increase of transketolase activity” value is recorded as 300%. Also, the effect on retinopathy entry in series [1] is listed as “prevented retinopathy”.
